Measurements taken from the kinase profiling compilation of Christmann-Franck et al. (2016).

Columns and labels:
Assay in all cases: split-luciferase competition binding
[1] = molecular target: PRKCE (human) (UniProt Q02156); conditions: compound 10.0 µM
[2] = molecular target: PRKCI (human) (UniProt P41743); conditions: compound 10.0 µM
[3] = molecular target: PRKCQ (human) (UniProt Q04759); conditions: compound 10.0 µM
[4] = molecular target: AURKB (human) (UniProt Q96GD4); conditions: compound 10.0 µM
[5] = molecular target: PRKCD (human) (UniProt Q05655); conditions: compound 10.0 µM
[6] = molecular target: SGK3 (human) (UniProt Q96BR1); conditions: compound 10.0 µM
Sequence of SGK3 (human) (Q96BR1 whole entry, looked up): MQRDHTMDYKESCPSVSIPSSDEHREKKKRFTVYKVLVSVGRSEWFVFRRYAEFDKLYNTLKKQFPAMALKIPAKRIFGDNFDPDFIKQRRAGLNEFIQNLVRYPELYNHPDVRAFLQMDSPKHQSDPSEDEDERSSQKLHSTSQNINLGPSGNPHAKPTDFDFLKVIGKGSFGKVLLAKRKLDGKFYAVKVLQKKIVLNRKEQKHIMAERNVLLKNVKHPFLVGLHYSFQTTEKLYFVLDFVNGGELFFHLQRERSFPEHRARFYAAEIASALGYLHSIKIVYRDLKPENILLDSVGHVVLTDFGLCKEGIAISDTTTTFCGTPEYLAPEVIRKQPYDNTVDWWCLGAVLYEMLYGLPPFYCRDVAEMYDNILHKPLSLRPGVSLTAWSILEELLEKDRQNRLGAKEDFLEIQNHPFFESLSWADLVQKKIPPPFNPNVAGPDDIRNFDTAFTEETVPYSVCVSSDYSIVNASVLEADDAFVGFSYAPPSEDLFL

[7] = molecular target: PDPK1 (human) (UniProt O15530); conditions: compound 10.0 µM
[8] = molecular target: RPS6KA5 KD1 (human) (UniProt O75582); conditions: compound 10.0 µM
[9] = molecular target: DMPK (human) (UniProt Q09013); conditions: compound 10.0 µM
Sequence of DMPK (human) (Q09013 whole entry, looked up): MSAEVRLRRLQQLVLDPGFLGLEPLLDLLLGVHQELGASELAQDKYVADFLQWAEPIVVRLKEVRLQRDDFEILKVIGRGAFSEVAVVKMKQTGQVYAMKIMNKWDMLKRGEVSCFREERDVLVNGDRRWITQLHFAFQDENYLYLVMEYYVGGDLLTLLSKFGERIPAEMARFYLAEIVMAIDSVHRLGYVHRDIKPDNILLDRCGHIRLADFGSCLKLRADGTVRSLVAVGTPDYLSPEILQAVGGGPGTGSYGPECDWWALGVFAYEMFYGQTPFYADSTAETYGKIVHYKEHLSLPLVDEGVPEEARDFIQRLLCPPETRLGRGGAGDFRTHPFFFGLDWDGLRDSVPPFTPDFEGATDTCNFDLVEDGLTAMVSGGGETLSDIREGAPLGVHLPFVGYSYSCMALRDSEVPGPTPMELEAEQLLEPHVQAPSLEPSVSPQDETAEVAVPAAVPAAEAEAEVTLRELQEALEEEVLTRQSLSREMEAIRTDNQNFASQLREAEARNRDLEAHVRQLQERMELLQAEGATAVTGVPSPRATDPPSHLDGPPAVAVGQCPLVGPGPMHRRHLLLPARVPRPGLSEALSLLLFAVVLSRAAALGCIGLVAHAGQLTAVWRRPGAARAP

[10] = molecular target: AKT3 (human) (UniProt Q9Y243); conditions: compound 10.0 µM
[11] = molecular target: AURKA (human) (UniProt O14965); conditions: compound 10.0 µM
[12] = molecular target: AKT1 (human) (UniProt P31749); conditions: compound 10.0 µM
Sequence of AKT1 (human) (P31749 whole entry, looked up): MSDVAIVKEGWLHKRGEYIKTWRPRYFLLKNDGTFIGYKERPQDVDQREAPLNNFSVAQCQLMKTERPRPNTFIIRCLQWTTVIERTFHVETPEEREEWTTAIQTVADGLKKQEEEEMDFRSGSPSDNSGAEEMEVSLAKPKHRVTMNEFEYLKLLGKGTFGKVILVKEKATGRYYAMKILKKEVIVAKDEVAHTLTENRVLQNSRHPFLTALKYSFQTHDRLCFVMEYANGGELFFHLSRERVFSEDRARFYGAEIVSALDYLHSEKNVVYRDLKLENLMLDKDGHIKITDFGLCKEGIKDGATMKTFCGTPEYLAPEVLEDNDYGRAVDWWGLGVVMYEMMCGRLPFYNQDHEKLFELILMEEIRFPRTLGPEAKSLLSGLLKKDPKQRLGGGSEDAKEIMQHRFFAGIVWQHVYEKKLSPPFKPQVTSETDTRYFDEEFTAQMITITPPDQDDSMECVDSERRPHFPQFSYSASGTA

[13] = molecular target: RPS6KA6 KD1 (human) (UniProt Q9UK32); conditions: compound 10.0 µM
[14] = molecular target: SGK2 (human) (UniProt Q9HBY8); conditions: compound 10.0 µM
[15] = molecular target: AURKC (human) (UniProt Q9UQB9); conditions: compound 10.0 µM
[16] = molecular target: RPS6KA3 KD1 (human) (UniProt P51812); conditions: compound 10.0 µM
Sequence of RPS6KA3 KD1 (human) (P51812 whole entry, looked up): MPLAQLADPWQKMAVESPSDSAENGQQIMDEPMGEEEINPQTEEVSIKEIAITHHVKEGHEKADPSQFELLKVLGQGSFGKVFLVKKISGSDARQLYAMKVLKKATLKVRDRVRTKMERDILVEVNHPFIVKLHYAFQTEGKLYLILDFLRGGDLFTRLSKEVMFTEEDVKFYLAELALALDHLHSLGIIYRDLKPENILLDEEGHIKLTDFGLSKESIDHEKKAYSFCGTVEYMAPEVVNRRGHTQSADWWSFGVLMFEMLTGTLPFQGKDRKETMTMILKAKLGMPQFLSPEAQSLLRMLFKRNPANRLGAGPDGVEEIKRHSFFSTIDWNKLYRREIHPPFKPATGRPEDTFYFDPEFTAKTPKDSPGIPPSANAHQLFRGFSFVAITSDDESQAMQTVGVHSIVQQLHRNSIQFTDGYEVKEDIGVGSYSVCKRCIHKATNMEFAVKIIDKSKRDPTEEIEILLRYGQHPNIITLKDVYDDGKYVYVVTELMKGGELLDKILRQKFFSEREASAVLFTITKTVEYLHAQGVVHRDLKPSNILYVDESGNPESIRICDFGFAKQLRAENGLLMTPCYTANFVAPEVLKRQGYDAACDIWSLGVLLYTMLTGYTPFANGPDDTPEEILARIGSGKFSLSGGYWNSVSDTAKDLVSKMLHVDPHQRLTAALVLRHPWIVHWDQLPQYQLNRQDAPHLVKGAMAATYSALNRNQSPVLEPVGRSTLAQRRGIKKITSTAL

[17] = molecular target: PRKACB (human) (UniProt P22694); conditions: compound 10.0 µM
[18] = molecular target: PRKCG (human) (UniProt P05129); conditions: compound 10.0 µM
[19] = molecular target: AKT2 (human) (UniProt P31751); conditions: compound 10.0 µM
Sequence of AKT2 (human) (P31751 whole entry, looked up): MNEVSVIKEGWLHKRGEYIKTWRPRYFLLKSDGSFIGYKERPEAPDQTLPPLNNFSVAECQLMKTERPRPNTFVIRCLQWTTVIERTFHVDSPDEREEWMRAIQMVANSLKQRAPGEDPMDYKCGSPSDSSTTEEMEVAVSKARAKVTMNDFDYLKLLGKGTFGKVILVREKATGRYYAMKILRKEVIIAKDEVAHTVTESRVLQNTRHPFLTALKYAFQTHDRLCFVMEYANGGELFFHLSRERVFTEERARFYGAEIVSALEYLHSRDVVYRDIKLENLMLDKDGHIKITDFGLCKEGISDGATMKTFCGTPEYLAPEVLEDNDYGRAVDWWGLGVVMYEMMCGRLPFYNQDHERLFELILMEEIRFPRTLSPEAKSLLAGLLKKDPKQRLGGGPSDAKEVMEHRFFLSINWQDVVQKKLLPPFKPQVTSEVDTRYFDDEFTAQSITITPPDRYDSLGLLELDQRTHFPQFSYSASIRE

[20] = system: PRKACA (mouse); conditions: compound 10.0 µM; accession and sequence are those of the human protein
[21] = molecular target: PRKCH (human) (UniProt P24723); conditions: compound 10.0 µM
[22] = molecular target: RPS6KA2 KD1 (human) (UniProt Q15349); conditions: compound 10.0 µM
Sequence of RPS6KA2 KD1 (human) (Q15349 whole entry, looked up): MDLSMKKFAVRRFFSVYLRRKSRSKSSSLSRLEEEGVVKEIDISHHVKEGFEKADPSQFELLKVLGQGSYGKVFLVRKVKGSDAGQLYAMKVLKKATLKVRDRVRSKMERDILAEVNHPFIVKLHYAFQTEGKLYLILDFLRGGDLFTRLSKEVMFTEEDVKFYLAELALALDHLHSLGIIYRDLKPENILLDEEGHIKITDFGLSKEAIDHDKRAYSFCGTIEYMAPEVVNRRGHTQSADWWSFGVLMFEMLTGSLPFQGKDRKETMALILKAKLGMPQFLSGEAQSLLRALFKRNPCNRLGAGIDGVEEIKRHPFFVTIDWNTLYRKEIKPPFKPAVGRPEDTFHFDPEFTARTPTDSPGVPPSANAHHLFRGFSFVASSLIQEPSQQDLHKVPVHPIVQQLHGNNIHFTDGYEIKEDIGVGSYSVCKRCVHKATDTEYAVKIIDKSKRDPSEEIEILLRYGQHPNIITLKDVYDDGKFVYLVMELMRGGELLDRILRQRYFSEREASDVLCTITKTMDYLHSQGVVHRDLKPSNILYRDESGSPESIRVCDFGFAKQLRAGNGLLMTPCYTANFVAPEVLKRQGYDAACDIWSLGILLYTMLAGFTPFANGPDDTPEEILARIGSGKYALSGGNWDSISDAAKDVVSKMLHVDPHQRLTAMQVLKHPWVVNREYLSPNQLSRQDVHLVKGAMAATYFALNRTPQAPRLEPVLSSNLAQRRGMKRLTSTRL

[23] = molecular target: PRKX (human) (UniProt P51817); conditions: compound 10.0 µM
[24] = molecular target: PKN1 (human) (UniProt Q16512); conditions: compound 10.0 µM
[25] = molecular target: STK32B (human) (UniProt Q9NY57); conditions: compound 10.0 µM
[26] = molecular target: RPS6KA1 KD1 (human) (UniProt Q15418); conditions: compound 10.0 µM
[27] = molecular target: RPS6KA4 KD1 (human) (UniProt O75676); conditions: compound 10.0 µM

Sequence of PRKCI (human) (P41743 whole entry, looked up): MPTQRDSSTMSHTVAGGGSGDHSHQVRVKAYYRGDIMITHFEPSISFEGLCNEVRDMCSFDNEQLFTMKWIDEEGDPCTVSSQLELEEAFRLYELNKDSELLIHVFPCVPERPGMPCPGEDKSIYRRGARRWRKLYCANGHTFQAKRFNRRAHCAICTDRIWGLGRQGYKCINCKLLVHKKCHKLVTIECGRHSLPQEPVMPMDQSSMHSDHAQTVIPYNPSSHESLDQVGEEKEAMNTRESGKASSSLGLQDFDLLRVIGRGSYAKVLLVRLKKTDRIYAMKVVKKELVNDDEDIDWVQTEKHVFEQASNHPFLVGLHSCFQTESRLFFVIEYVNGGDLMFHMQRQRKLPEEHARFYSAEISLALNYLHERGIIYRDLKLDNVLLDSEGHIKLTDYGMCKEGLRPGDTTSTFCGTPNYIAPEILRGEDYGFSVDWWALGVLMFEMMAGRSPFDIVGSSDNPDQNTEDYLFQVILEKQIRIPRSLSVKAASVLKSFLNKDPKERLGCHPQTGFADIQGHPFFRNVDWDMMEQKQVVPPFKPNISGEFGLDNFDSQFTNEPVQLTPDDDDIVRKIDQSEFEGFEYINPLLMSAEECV
Sequence of PRKCE (human) (Q02156 whole entry, looked up): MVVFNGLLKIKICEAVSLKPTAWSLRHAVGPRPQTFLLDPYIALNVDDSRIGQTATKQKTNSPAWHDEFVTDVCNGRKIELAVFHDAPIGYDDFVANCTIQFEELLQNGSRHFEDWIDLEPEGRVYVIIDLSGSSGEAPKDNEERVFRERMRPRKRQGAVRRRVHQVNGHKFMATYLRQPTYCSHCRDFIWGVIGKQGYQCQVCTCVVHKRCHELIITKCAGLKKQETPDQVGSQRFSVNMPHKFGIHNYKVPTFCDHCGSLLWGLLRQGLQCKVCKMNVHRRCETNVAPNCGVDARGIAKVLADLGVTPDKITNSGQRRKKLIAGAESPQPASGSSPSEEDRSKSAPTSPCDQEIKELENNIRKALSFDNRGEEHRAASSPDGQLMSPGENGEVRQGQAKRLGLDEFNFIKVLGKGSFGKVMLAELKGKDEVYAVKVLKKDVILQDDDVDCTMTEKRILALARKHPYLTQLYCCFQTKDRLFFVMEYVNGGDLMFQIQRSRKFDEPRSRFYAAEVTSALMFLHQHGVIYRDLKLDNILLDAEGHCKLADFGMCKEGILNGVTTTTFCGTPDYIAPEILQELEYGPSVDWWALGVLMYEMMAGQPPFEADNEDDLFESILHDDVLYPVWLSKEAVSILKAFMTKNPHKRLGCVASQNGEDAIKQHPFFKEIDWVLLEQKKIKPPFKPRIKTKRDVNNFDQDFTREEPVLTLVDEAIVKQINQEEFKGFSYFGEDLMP

SMILES | inhibition [1] [%] | inhibition [2] [%] | inhibition [3] [%] | inhibition [4] [%] | inhibition [5] [%] | inhibition [6] [%] | inhibition [7] [%] | inhibition [8] [%] | inhibition [9] [%] | inhibition [10] [%] | inhibition [11] [%] | inhibition [12] [%] | inhibition [13] [%] | inhibition [14] [%] | inhibition [15] [%] | inhibition [16] [%] | inhibition [17] [%] | inhibition [18] [%] | inhibition [19] [%] | inhibition [20] [%] | other results
Cc1ccccc1C(=O)c1ccc(Nc2ccc(Br)cc2N)cc1Cl | 12 | 0 | 0 | 0 | 0 | 0 | 0 | 0 | 0 | 0 | 0 | 0 | 0 | 0 | 0 | 0 | 0 | 0 | 0 | 4 | inhibition [21]: 0%; inhibition [22]: 0%; inhibition [23]: 0%; inhibition [24]: 0%; inhibition [25]: 0%; inhibition [26]: 0%; inhibition [27]: 0%
O=c1cc(N2CCOCC2)oc2c(-c3ccccc3)cccc12 | 0 | 0 | 0 | 0 | 0 | 0 | 0 | 4 | 0 | 0 | 0 | 0 | 0 | 0 | 0 | 0 | 0 | 0 | 0 | 0 | inhibition [21]: 0%; inhibition [22]: 0%; inhibition [23]: 0%; inhibition [24]: 0%; inhibition [25]: 0%; inhibition [26]: 16%; inhibition [27]: 0%
CN1CC[C@H](c2c(O)cc(O)c3c(=O)cc(-c4ccccc4Cl)oc23)[C@H](O)C1 | 0 | 0 | 35 | 0 | 15 | 0 | 0 | 16 | 6 | 0 | 12 | 1 | 2 | 0 | 28 | 8 | 0 | 0 | 0 | 5 | inhibition [21]: 0%; inhibition [22]: 2%; inhibition [23]: 8%; inhibition [24]: 1%; inhibition [25]: 11%; inhibition [26]: 19%; inhibition [27]: 23%
Fc1ccc(Cl)cc1-c1nc(Nc2ccncc2)c2nccnc2n1 | 27 | 8 | 51 | 12 | 10 | 14 | 12 | 24 | 18 | 35 | 0 | 39 | 13 | 22 | 8 | 12 | 19 | 10 | 26 | 21 | inhibition [21]: 43%; inhibition [22]: 5%; inhibition [23]: 12%; inhibition [24]: 0%; inhibition [25]: 15%; inhibition [26]: 18%; inhibition [27]: 8%
